Key:
[1] = molecular target: T1, OR51E1 olfactory receptor (Homo sapiens, UniProt Q8TCB6); assay: Butyric acid olfactory receptor antagonist cell-based dose-response vs butyric acid EC80; conditions: Table 20, spiro analogues; for Emax: read-out: Inhibition (%)
T1 construct: expressed in transfected cells
T1 sequence (Q8TCB6 1-318): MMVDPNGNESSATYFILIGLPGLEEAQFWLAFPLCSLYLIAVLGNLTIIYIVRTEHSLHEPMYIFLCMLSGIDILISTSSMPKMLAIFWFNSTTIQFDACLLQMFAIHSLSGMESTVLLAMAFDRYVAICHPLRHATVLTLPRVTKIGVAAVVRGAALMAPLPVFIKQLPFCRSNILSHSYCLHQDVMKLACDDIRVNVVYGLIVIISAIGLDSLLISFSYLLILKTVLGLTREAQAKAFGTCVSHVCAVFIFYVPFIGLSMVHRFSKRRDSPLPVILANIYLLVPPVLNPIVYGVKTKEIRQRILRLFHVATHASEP

[2] = system: butyric acid malodor perception; assay: Human sensory panel, perceived intensity of butyric acid; assay type: in vivo; conditions: Table 20
Experimental: The pleasantness of the compounds delivered alone (triangles, dashed-line) and in a mixture with butyric acid at isointense concentrations (squares, solid line). Many of these compounds are shown to inhibit the activity of a butyric acid olfactory receptor.
Malodor receptor antagonist systems and compositions were evaluated at a gas phase concentration of 3.4 microg/1 air. The sensory method to evaluate compositions required the use of specially designed air dilution olfactometers to achieve well controlled and stable gas phase concentrations of the compositions and of the malodor to the group of test subjects.
The 30 subjects first evaluated the malodor reconstitution alone and then rated the 3 attributes “Freshness”, “Pleasantness” and “malodor” (the malodor character) on a 0 to 10 scale. The next evaluation was performed 30 seconds later to avoid odor adaptation, the malodor reconstitution was injected together with the test composition in the olfactometer. Ratings for the same descriptors recorded.

IC50 [1] [µM] | Emax [1] [%] | Structure (SMILES) | Sensory Performance (%) [2] [%]
46.6 | 103 | C=C(C)CC1(CC(=C)C)CCCC(C)(C)C1=O [2,2-dimethyl-6,6-bis(2-methylprop-2-enyl)cyclohexan-1-one] | 50
78.7 | 16 | CC1=C(C)CC2(CCCC(C)(C)C2O)C1 (stereo not drawn) [2,3,9,9-tetramethylspiro[4.5]dec-2-en-10-ol] | 60
> 600 | 116 | CC(=O)OC1C(C)(C)CCCC12CC(C)=C(C)C2 (stereo not drawn) [(2,3,9,9-tetramethylspiro[4.5]dec-2-en-10-yl) acetate] | 40
